pEC50: −log10 of the molar value.
Legend:
GPR40 [1] = molecular target: T1, GPR40 (Homo sapiens, UniProt O14842); experiment: Cell-based aequorin assay (CHO cells stably expressing GPR40 and aequorin); parameters: expressed in transfected cells; host or cells: CHO cells stably transfected with GPR40 and aequorin; conditions: activation of human GPR40, CHO cells, 0.01% HSA
In short: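 CHO cells stably co-expressing GPR40 and aequorin, loaded with coelenterazine (1 ug/mL, 2 h, room temperature) in H/HBSS with 20 mM Hepes and 0.01% fatty acid-free HSA. Serially diluted compounds added; luminescence recorded over 20 s. EC50 from dose-response of maximum relative light units.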

GPR40 [2] = molecular target: T1, GPR40; experiment: Inositol phosphate accumulation assay (A9_GPR40 cells); type: cell-based; parameters: expressed in transfected cells; host or cells: CHO cells stably transfected with GPR40 and aequorin; conditions: inositol phosphate assay, A9_GPR40 cells, 1 hour; read-out: IP3 EC50
Method: Briefly, the Aequorin assays were performed on doubly stable CHO cells expressing GPR40 and Aequorin DNA. […] The luminescence was recorded over a period of 20 seconds with a Microlumat luminometer (Berthold). […] The inositol phosphate assay was performed on an A9 cell line stably transfected with GPR40 (A9_GPR40). The cells were incubated with different concentrations of compounds and [^3H] inositol accumulation was measured after 1 hour.
An A9 cell line stably transfected with GPR40 (A9_GPR40) was used in IP accumulation assays. A9_GPR40 cells were plated in 96-well plates containing 20,000 cells/well in DMEM containing 10% FBS. After the cells attached to the well surface, the media was replaced with inositol free DMEM containing 10% dialyzed FBS and 1 μCi, mL ^3H-inositol and incubated for 16 hours. Compounds were diluted in HBSS/10 mM LiCl containing a desired amount of HSA and added directly to cells. Following 1 hour incubation at 37° C., the media was replaced with 100 μL of 20 mM formic acid to quench the reaction. 50 μL of the extract was then added to 100 μL of SPA beads, incubated overnight, and measured on a TopCount the following day.

T1 sequence (O14842 whole entry): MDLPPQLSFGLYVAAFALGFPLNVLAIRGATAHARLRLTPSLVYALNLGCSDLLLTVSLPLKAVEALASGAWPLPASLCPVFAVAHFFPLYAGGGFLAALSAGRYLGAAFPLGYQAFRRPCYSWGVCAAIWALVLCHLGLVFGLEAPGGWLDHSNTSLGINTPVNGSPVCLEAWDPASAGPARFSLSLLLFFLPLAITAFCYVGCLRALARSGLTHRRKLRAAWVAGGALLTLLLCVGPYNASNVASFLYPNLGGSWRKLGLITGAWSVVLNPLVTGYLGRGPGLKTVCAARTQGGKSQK

Row | Compound | pEC50 (GPR40 [1]) | pEC50 (GPR40 [2]) | Aequorin EC50 (GPR40 [1])
1 | COc1ccc(F)c(-c2ccc(COc3cccc([C@H](C)CC(=O)O)c3)cc2C23CC4CC(CC(C4)C2)C3)c1 (single isomer, unassigned) [Example 64.16, (3R)-3-(3-(((2′-Fluoro-5′-(methyloxy)-2-tricyclo[3.3.1.1˜3,7˜]dec-1-yl-1,1′-biphenyl-4-yl)methyl)oxy)phenyl)butanoic acid or (3S)-3-(3-(((2′-fluoro-5′-(methyloxy)-2-tricyclo[3.3.1.1˜3,7˜]dec-1-yl-1,1′-biphenyl-4-yl)methyl)oxy)phenyl)butanoic acid] | 6.00 to 7.00 | 7.00 to 8.00 | –
2 | COc1ccc(F)c(-c2ccc(COc3cccc(C(C)CC(=O)O)c3)cc2C2CCCCCC2)c1 (single isomer, unassigned) [Example 64.17, (3R)-3-(3-(((2-Cycloheptyl-2′-fluoro-5′-(methyloxy)-1,1′-biphenyl-4-yl)methyl)oxy)phenyl)butanoic acid or (3S)-3-(3-(((2-cycloheptyl-2′-fluoro-5′-(methyloxy)-1,1′-biphenyl-4-yl)methyl)oxy)phenyl)butanoic acid] | 6.00 to 7.00 | 7.00 to 8.00 | –
3 | COc1ccc(F)c(-c2ccc(COc3cccc(C(C)CC(=O)O)c3)cc2C2(C)CC2)c1 (single isomer, unassigned) [Example 64.18, (3R)-3-(3-(((2′-Fluoro-2-(1-methylcyclopropyl)-5′-(methyloxy)-1,1′-biphenyl-4-yl)methyl)oxy)phenyl)butanoic acid or (3S)-3-(3-(((2′-fluoro-2-(1-methylcyclopropyl)-5′-(methyloxy)-1,1′-biphenyl-4-yl)methyl)oxy)phenyl)butanoic acid] | 6.00 to 7.00 | 6.00 to 7.00 | –
4 | COc1ccc(F)c(-c2ccc(COc3cccc(C(C)CC(=O)O)c3)cc2C2=CCCC2)c1 (single isomer, unassigned) [Example 64.19, (3R)-3-(3-(((2-(1-Cyclopenten-1-yl)-2′-fluoro-5′-(methyloxy)-1,1′-biphenyl-4-yl)methyl)oxy)phenyl)butanoic acid or (3S)-3-(3-(((2-(1-cyclopenten-1-yl)-2′-fluoro-5′-(methyloxy)-1,1′-biphenyl-4-yl)methyl)oxy)phenyl)butanoic acid] | 6.00 to 7.00 | 6.00 to 7.00 | –
5 | COc1cccc(-c2ccc(COc3cccc(C(C)CC(=O)O)c3)cc2C2=CCCC2(C)C)c1 (single isomer, unassigned) [Example 64.20, (3R)-3-(3-(((2-(5,5-Dimethyl-1-cyclopenten-1-yl)-3′-(methyloxy)-1,1′-biphenyl-4-yl)methyl)oxy)phenyl)butanoic acid or (3S)-3-(3-(((2-(5,5-dimethyl-1-cyclopenten-1-yl)-3′-(methyloxy)-1,1′-biphenyl-4-yl)methyl)oxy)phenyl)butanoic acid] | 6.00 to 7.00 | 7.00 to 8.00 | –
6 | COc1ccc(F)c(-c2ccc(COc3cccc(C(C)CC(=O)O)c3)cc2C2=CCCCC2)c1 (single isomer, unassigned) [Example 64.21, (3R)-3-(3-(((2-(1-Cyclohexen-1-yl)-2′-fluoro-5′-(methyloxy)-1,1′-biphenyl-4-yl)methyl)oxy)phenyl)butanoic acid or (3S)-3-(3-(((2-(1-cyclohexen-1-yl)-2′-fluoro-5′-(methyloxy)-1,1′-biphenyl-4-yl)methyl)oxy)phenyl)butanoic acid] | 6.00 to 7.00 | 7.00 to 8.00 | –
7 | COc1ccc(F)c(-c2ccc(COc3cccc(C(C)CC(=O)O)c3)cc2C2CCCC2(C)C)c1 (single isomer, unassigned) [Example 64.22, (3R)-3-(3-(((2-(2,2-Dimethylcyclopentyl)-2′-fluoro-5′-(methyloxy)-1,1′-biphenyl-4-yl)methyl)oxy)phenyl)butanoic acid or (3S)-3-(3-(((2-(2,2-dimethylcyclopentyl)-2′-fluoro-5′-(methyloxy)-1,1′-biphenyl-4-yl)methyl)oxy)phenyl)butanoic acid] | 6.00 to 7.00 | 7.00 to 8.00 | –
8 | CCC(CC(=O)O)c1cccc(OCc2ccc(-c3cc(OC)ccc3F)c(C3=CCCC3(C)C)c2)c1 (single isomer, unassigned) [Example 65.1, (3R)-3-(3-(((2-(5,5-Dimethyl-1-cyclopenten-1-yl)-2′-fluoro-5′-(methyloxy)-1,1′-biphenyl-4-yl)methyl)oxy)phenyl)pentanoic acid or (3S)-3-(3-(((2-(5,5-dimethyl-1-cyclopenten-1-yl)-2′-fluoro-5′-(methyloxy)-1,1′-biphenyl-4-yl)methyl)oxy)phenyl)pentanoic acid] | 6.00 to 7.00 | 7.00 to 8.00 | –
9 | COc1ccc(F)c(-c2ccc(COc3cccc(C(CC(=O)O)C4CC4)c3)cc2C2CCCCCC2)c1 (single isomer, unassigned) [Example 66.2, (3S)-3-(3-(((2-Cycloheptyl-2′-fluoro-5′-(methyloxy)-1,1′-biphenyl-4-yl)methyl)oxy)phenyl)-3-cyclopropylpropanoic acid or (3R)-3-(3-(((2-cycloheptyl-2′-fluoro-5′-(methyloxy)-1,1′-biphenyl-4-yl)methyl)oxy)phenyl)-3-cyclopropylpropanoic acid] | 6.00 to 7.00 | 7.00 to 8.00 | –
10 | COc1cccc(-c2ccc(COc3cccc(C(CC(=O)O)C4CC4)c3)cc2C2=CCCC2(C)C)c1 (single isomer, unassigned) [Example 66.3, (3S)-3-Cyclopropyl-3-(3-(((2-(5,5-dimethyl-1-cyclopenten-1-yl)-3′-(methyloxy)-1,1′-biphenyl-4-yl)methyl)oxy)phenyl)propanoic acid or (3R)-3-cyclopropyl-3-(3-(((2-(5,5-dimethyl-1-cyclopenten-1-yl)-3′-(methyloxy)-1,1′-biphenyl-4-yl)methyl)oxy)phenyl)propanoic acid] | – | > 8.00 | +++/ ++++
11 | COc1cccc(-c2ccc(COc3cccc(C(CC(=O)O)C4CC4)c3)cc2C2CCCCCC2)c1 (single isomer, unassigned) [Example 66.9, (3S)-3-(3-(((2-Cycloheptyl-3′-(methyloxy)-1,1′-biphenyl-4-yl)methyl)oxy)phenyl)-3-cyclopropylpropanoic acid or (3R)-3-(3-(((2-cycloheptyl-3′-(methyloxy)-1,1′-biphenyl-4-yl)methyl)oxy)phenyl)-3-cyclopropylpropanoic acid] | 6.00 to 7.00 | 7.00 to 8.00 | –
12 | COc1ccc(F)c(-c2ccc(COc3cccc(C(CC(=O)O)C4CC4)c3)cc2C2=CCCCC2(C)C)c1 (single isomer, unassigned) [Example 66.10, (3S)-3-Cyclopropyl-3-(3-(((2-(6,6-dimethyl-1-cyclohexen-1-yl)-2′-fluoro-5′-(methyloxy)-1,1′-biphenyl-4-yl)methyl)oxy)phenyl)propanoic acid or (3R)-3-cyclopropyl-3-(3-(((2-(6,6-dimethyl-1-cyclohexen-1-yl)-2′-fluoro-5′-(methyloxy)-1,1′-biphenyl-4-yl)methyl)oxy)phenyl)propanoic acid] | 6.00 to 7.00 | > 8.00 | –
13 | CC1(C)CCC[C@@H]1c1cc(COc2cccc([C@@H](CC(=O)O)C3CC3)c2)ccc1-c1cccc(OC(F)F)c1 (single isomer, unassigned) [Example 66.11] | 6.00 to 7.00 | 7.00 to 8.00 | –
14 | COc1cc(-c2ccc(COc3cccc([C@@H](CC(=O)O)C4CC4)c3)cc2C2=CCCC2(C)C)c(F)cn1 (single isomer, unassigned) [Example 66.12, (3S)-3-(3-(3-(5,5-Dimethylcyclopent-1-enyl)-4-(5-fluoro-2-methoxypyridin-4-yl)benzyloxy)phenyl)-3-cyclopropylpropanoic acid or (3R)-3-(3-(3-(5,5-dimethylcyclopent-1-enyl)-4-(5-fluoro-2-methoxypyridin-4-yl)benzyloxy)phenyl)-3-cyclopropylpropanoic acid] | 6.00 to 7.00 | 7.00 to 8.00 | –
15 | COc1ccc(F)c(-c2ccc(COc3cccc([C@@H](CC(=O)O)C4CC4)c3)cc2[C@@H](OC)C(C)(C)C)c1 (single isomer, unassigned) [Example 66.13] | 6.00 to 7.00 | > 8.00 | –
16 | COc1ccc(F)c(-c2ccc(COc3cccc(C(CC(=O)O)C4CC4)c3)cc2C(C)C(C)(C)C)c1 (single isomer, unassigned) [Example 66.19] | 7.00 to 8.00 | > 8.00 | –
17 | COc1ccc(F)c(-c2ccc(COc3cccc([C@@H](CC(=O)O)C4CC4)c3)cc2CC(C)C)c1 (single isomer, unassigned) [Example 66.20, (3S)-3-Cyclopropyl-3-(3-(((2′-fluoro-5′-(methyloxy)-2-(2-methylpropyl)-1,1′-biphenyl-4-yl)methyl)oxy)phenyl)propanoic acid or (3R)-3-cyclopropyl-3-(3-(((2′-fluoro-5′-(methyloxy)-2-(2-methylpropyl)-1,1′-biphenyl-4-yl)methyl)oxy)phenyl)propanoic acid] | 6.00 to 7.00 | 7.00 to 8.00 | –
18 | COc1ccc(F)c(-c2ccc(COc3cccc([C@@H](CC(=O)O)C4CC4)c3)cc2[C@@H]2CCCCC2(C)C)c1 (single isomer, unassigned) [Example 66.22] | 7.00 to 8.00 | > 8.00 | –
